{
  "source": "patent US9783513B2",
  "about": "“STAT3 inhibitors and their anticancer use” (Ohio State Innovation Foundation, priority 2012, dated 2017)",
  "key": {"[1]": {"test_system": "human sarcoma cell lines (RD2, RH30, U2OS)", "experiment": "Cell viability (MTT) assay, different cell lines", "format": "cell-based", "settings": "in different cell lines", "experimental": "Human sarcoma cell lines (RD2, RH30, U2OS) were seeded in 96-well plates at a density of 3,000 cells per well. The cells were incubated at 37° C. for a period of 24 hours. Different concentrations of LY-5 (0.1-10 μM), LY-3 (0.1-20 μM), and LLL12 (0.1-10 μM) prepared as a 20 mM stock solution in sterile DMSO were added in triplicate to the plates in the presence of 10% FBS. 3-(4,5-Dimethylthiazolyl)-2, 5-diphenyltetrazoliumbromide (MTT) was added to evaluate cell viability. The absorbance was read at 595 nm. IC50 values were determined using SigmaPlot 9.0 Software (Systat Software, Inc., San Jose, Calif.).\nAlternatively, cells were seeded in 96-well plates in triplicate at a density of 3,000 cells per well and given 24 hours to adhere. Cells were then treated with varying concentrations of the inhibitors in the presence of 10% FBS. The cells were incubated for 72 hours at 37° C. 25 μl of MTT dye (Sigma, #M5655) was added to each sample and incubated for 3.5 hours. After this, 100 μl of N,N-dimethylformamide (Sigma, #D4551) solubilization solution was added to each well. The absorbance at 450 nm was read the following day. Half-Maximal inhibitory concentrations (IC50) were determined using Sigma Plot 9.0 software (Systat Software Inc.)."}, "PLK3": {"molecular_target": "T1, PLK3 (Homo sapiens, UniProt Q9H4B4)", "T1 construct": "purchased KINOMESCAN, San Diego, Calif", "T1 sequence (Q9H4B4 whole entry)": "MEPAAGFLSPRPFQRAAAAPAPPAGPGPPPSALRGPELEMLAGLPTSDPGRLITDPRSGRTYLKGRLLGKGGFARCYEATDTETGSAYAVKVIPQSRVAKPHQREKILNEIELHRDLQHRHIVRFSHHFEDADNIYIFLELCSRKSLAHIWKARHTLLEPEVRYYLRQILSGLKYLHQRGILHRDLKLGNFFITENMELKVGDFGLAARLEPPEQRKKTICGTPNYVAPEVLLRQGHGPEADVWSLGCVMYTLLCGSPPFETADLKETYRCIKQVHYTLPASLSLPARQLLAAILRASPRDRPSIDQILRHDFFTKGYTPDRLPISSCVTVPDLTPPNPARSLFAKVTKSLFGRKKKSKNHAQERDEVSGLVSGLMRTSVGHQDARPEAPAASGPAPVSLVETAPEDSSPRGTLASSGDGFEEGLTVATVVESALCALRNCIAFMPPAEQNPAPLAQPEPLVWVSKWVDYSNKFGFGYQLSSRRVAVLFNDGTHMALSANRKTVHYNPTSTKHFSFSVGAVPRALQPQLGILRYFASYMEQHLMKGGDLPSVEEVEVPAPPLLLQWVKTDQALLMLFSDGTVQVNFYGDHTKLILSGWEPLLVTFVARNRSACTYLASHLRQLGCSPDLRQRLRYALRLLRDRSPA", "experiment": "Kinase screening (KINOMESCAN), PLK3", "format": "binding", "experimental": "The potential off-target activity of a representative compound was assessed in a screen against 96 protein and lipid kinases (see FIGS. 56 and 60). The test compound, LY-5, was assessed at 1000 and 5000 nM concentration using in vitro kinase assays. The assays were carried out using standard techniques known to one skilled in the art (KINOMESCAN™, San Diego, Calif.). The data in FIG. 60 show the % inhibition for the tested concentrations of LY-5 in the panel of kinases assessed. The interaction map provides a visualization of the relationship of these inhibition data from FIG. 60 to various kinase families."}, "cleaved caspase-3": {"test_system": "cleaved caspase-3", "experiment": "Western blot, cleaved caspase-3 (apoptosis)", "format": "cell-based, human"}, "[2]": {"test_system": "STAT3 nuclear translocation", "experiment": "Immunofluorescence assay, nuclear translocation", "format": "cell-based, human", "settings": "SJSA; 1 or 2.5 μM; 4 h", "experimental": "Cells seeded on glass slides in 6-well plate were cultured in serum-free medium for 24 hours. After the cell density reached about 80%, cells were pretreated with LY5 (1 or 2.5 μM) for 4 hours followed by IL-6 or IFN-γ (50 ng/ml), for 30 min, and were fixed with cold methanol for 15 min. After washing in phosphate-buffered saline (PBS), the slides were blocked with 5% normal goat serum and 0.3% Triton X-100 in PBS (PBST) for 1 hour. The slides were incubated with primary antibodies (1:100) against STAT3 or P-STAT1 proteins (Cell Signaling Technology) overnight at 4° C. Then, the slides were washed with PBST and incubated with goat anti-rabbit FIFC-conjugated secondary antibody (Invitrogen, 1:200). The cells were mounted with Vectashield Hardset mounting medium with DAPI (Vector Laboratories, Burlingame, Calif., USA). Photomicrographs were captured by Leica Microsystems (Bannockburn, Ill., USA)."}, "HUVEC": {"test_system": "HUVEC", "experiment": "Matrigel invasion assay", "format": "cell-based, human", "settings": "300 nM", "experimental": "The Matrigel invasion assays were carried out using Matrigel precoated inserts (BD Bioscience) following the manufacturer's instructions. Six hundred μl of M200 medium with or without VEGF (20 ng/ml, R&D Systems) was placed in the lower wells. Proliferating HUVECs (4×10^5 cells/ml) were pretreated with LY5 (300 nM) and 100 μl of cell suspension was loaded into each of the upper wells. The chambers were incubated for 18-20 hr at 37° C. After incubation, the inserts were removed, and the non-invading cells on the upper surface were removed with a cotton swab. The cells on the lower surface of the membrane were fixed in 100% methanol for 15 minutes, air-dried, and stained with Diff-Quik stain for 2 min. The cells were counted in six individual high-power fields for each membrane condition under a light microscope. Assays were performed in triplicate for each treatment group and the results were expressed as migrated cells per field for each condition."}, "[3]": {"test_system": "MDA-MB-231 human breast cancer cells xenograft", "experiment": "Mouse model of xenograft tumor development", "format": "in vivo", "settings": "for tumor growth (tumor volume) / STAT3 phosphorylation in tumor tissue: 21 days; for tumor growth (tumor volume): p<0.001; for STAT3 phosphorylation in tumor tissue: Western blot", "experimental": "MDA-MB-231 human breast cancer cells (5×10^6) were injected subcutaneously into the flank area of 6-week-old female athymic nude mice which were purchased from Harlan (Indianapolis, Ind., USA). There were two injection sites per animal, thus each animal provided two tumors for analysis. After tumor development, mice were divided into two treatment groups consisting of eight tumors per group (4 animals/group). The vehicle was as follows: 10% DMSO, 18% Cremophor EL, and 72% sterile 5% Dextrose solution. The same vehicle was used for oral administration (via oral gavage) or intraperitoneal (“IP”) injection. The test compound was LY-5 was at 2.5 mg/ml in the vehicle, and 100 μL was administered daily to each animal (total dose: 5 mg/kg). For both oral and IP administration, LY-5 was administered for 21 days. Tumor growth was determined by measuring length (L) and width (W) of the tumor every other day with a caliper. The tumor volume was calculated according to the formula: Tumor volume=0.5236×L×W^2.\nStatistical analysis for mouse xenograft tumor data was performed by fitting a mixed model to conduct the repeated measures analysis. The repeated measures in the model were the log transformed growing rates (log 10(tumor size/day one tumor size)) measured in different days (1,3, etc. as indicated). The purpose of the model was to test whether the interaction effect between measurement time and treatment group was significant. The interaction item can be interpreted as “the difference of growing rate among the groups.” Probability (p) values less than 0.05 were considered statistically significant."}},
  "note": "“Also recorded” adds a separate entry of the source.",
  "data": [
    {"smiles": "NS(=O)(=O)c1cccc2c1C(=O)C=C(Nc1cccnc1)C2=O", "note": "[LY-5, 5,8-dioxo-6-(pyridin-3-ylamino)-5,8-dihydronaphthalene-1-sulfonamide]", "values": [
      {"measurement": "IC50", "setting": "[1]", "value": "500 to 1400", "unit": "nM"},
      {"measurement": "inhibition", "setting": "PLK3; at 1000 nM", "value": "no inhibition"},
      {"measurement": "activity against PLK3", "setting": "PLK3; at 5 μM, FIG. 60", "value": "some activity"},
      {"measurement": "inhibition at 5 µM", "setting": "PLK3; at 5000 nM", "value": 72, "unit": "%"},
      {"measurement": "apoptosis (cleaved caspase 3)", "setting": "cleaved caspase-3; EW8, 0.5-1.0 μM, 8 h", "value": "induction of apoptosis"},
      {"measurement": "apoptosis (cleaved caspase-3) in normal cells", "setting": "cleaved caspase-3; HCSMC, HH and HSMM, 0-1 μM, 2 h", "value": "but not in HCSMC, HH and HSMM cells"},
      {"measurement": "apoptosis (cleaved caspase-3)", "setting": "cleaved caspase-3; RD2 and EW8, 0-1 μM, 2 h", "value": "induces apoptosis"},
      {"measurement": "apoptosis (cleaved caspase-3)", "setting": "cleaved caspase-3; UW288-1 and UW426, 0-1 μM, 2 h", "value": "apoptosis"},
      {"measurement": "IFN-γ induced STAT3 nuclear translocation", "setting": "[2]", "value": "does not inhibit"},
      {"measurement": "IL-6 induced STAT3 nuclear translocation", "setting": "[2]", "value": "inhibits"},
      {"measurement": "HUVECs invasion through Matrigel coated membranes", "setting": "HUVEC", "value": "prevented"},
      {"measurement": "vessel number in tumor tissue (anti-CD34 staining)", "setting": "[3]; human breast cancer tumor xenograft", "value": "reduced the vessel number"},
      {"measurement": "tumor growth (tumor volume)", "setting": "[3]; intraperitoneal injection, 5 mg/kg daily, 5 mg/kg", "value": "significantly suppresses; also recorded: decrease in tumor growth"},
      {"measurement": "tumor growth (tumor volume)", "setting": "[3]; oral gavage, 5 mg/kg daily, 5 mg/kg", "value": "strongly suppressed tumor growth"},
      {"measurement": "tumor growth (tumor volume)", "setting": "[3]; oral gavage, 5 mg/kg daily, listed as LY5, 5 mg/kg", "value": "significantly decreased; also recorded: decreased tumor growth"},
      {"measurement": "body weight and visible signs of toxicity", "setting": "[3]; oral, 5 mg/kg daily", "value": "No obvious change in body weight or visible signs of toxicity"},
      {"measurement": "STAT3 phosphorylation in tumor tissue", "setting": "[3]; oral, 5 mg/kg", "value": "no apparent phosphorylated STAT3"},
      {"measurement": "STAT3 phosphorylation in tumor tissue", "setting": "[3]; oral, 5 mg/kg, listed as LY5, 5 mg/kg", "value": "noticeably lower than vehicle group; also recorded: decrease in STAT3 phosphorylation"}
    ]}
  ]
}
